Assay results: PMC8268887, “Peptide/β-Peptoid Hybrids with Ultrashort PEG-Like Moieties: Effects on Hydrophobicity, Antibacterial Activity and Hemolytic Properties” (International Journal of Molecular Sciences, 2021)
≈ marks a conversion by molar mass, not a printed value.

How the values were obtained:
[1] = tested on: P. aeruginosa NMI 7197/19; assay type: cell-based, Pseudomonas aeruginosa; settings: NMI 7197/19, 20 h
How it was run: (§1)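 Broth microdilution (modified Hancock method) used ~5 × 10^5 CFU/mL inocula in Mueller-Hinton broth with Mg^2+ and Ca^2+ at 4 mg/L each. Peptidomimetics were diluted in 0.01% acetic acid, 0.2% BSA (final) using low-binding materials. MICs were read after 20 h at 35 °C (±2 °C) with 180 rpm shaking.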

P. aeruginosa PAO1 = assay type: cell-based, Pseudomonas aeruginosa; settings: PAO1, 20 h
How it was run: as §1

[2] = Antiproliferative activity on HepG2 cell line (MTT assay); assay type: cell-based; settings: HepG2 cells; at 1280 µg/mL, value in parenthesis; read-out: HepG2 cell viability at highest concentration tested
Method: (§2) Effect of compounds on mammalian cell viability was estimated on the HepG2 cell line ATCC HB-8065. In brief, HepG2 cells were seeded into flat-bottomed 96-well plates at a concentration of 5000 cells per well. Subsequently, the cells were incubated for 24 h in a humidified incubator (5% CO2, 37 °C). Then, the medium was removed, and the cells were incubated for 48 h in a humidified incubator (5% CO2, 37 °C) with peptidomimetics in serial dilutions. Then, an 3-(4,5-dimethylthiazol-2-yl)-2,5-diphenyltetrazolium bromide (MTT) assay was performed as previously described. In brief, after incubation with the test compounds, the culture medium was removed, and then fresh medium with 0.2 mg/mL MTT was added into each well of the plate. The cells were then incubated (3 h, 37 °C, 5% CO2), followed by removal of the medium with MTT and addition of 200 μL dimethyl sulfoxide at once to each sample. Absorbance of MTT was measured using the spectrophotometer TECAN Infinite M1000 at 540 nm. The relative viability was calculated by using the formula: ODtreated cells × 100/ODcontrol cells. The IC50 values are calculated by using the program Graph Pad Prism® 5.0. For all compounds, the test range was 10–1280 μg/mL.

[3] = tested on: HepG2 cell line ATCC HB-8065; assay: as above; assay type: cell-based; settings: inhibition of growth of HepG2 cells, 48 h, MTT; highest concentration tested 1280 µg/mL
Method: as §2

[4] = Estimation of log D values (n-octanol/PBS pH 7.4, LC-MS, log Dmax from LOQ); assay type: physicochemical; settings: n-octanol/PBS pH 7.4, 25 °C; indicative threshold from LOQ in octanol phase
Method: A phosphate buffered saline (PBS) pH 7.4 was prepared and then saturated with n-octanol. Likewise, an n-octanol solution saturated with pH 7.4 PBS buffer was also prepared. Both solutions were shaken for 24 h, and then left for 24 h in a separating funnel to ensure complete separation of the two phases. This provided an aqueous phase (PBS buffer saturated with n-octanol) and an n-octanol phase (saturated with PBS buffer).
Samples for log D determination were prepared as following: All compounds were dissolved in PBS buffer at a concentration 4 mg/mL, which was used as stock solutions. PBS-saturated n-octanol (1.0 mL), n-octanol-saturated PBS (0.76 mL) and sample stock solution (0.24 mL) were placed into a 4-mL clear glass vial and incubated on Biosan Thermo Shaker TS-100 at 1000 rpm and 25 °C. For optimization of the assay, the incubation time was varied from 5 h to 48 h. […] After incubation samples were centrifugated and left for 30 min to ensure complete separation of the phases. The distribution coefficient was determined by quantification of the compounds both in the aqueous and n-octanol phases. Then, 100 µL of each phase were transferred to 1.5 mL champagne glass vial and evaporated using a GeneVac EZ-2 PLUS evaporation instrument. Before LC-MS analysis samples were diluted with 200 µL MeCN–0.1% aqueous formic acid (1:1, v/v).
LC-MS was performed on Acquity UPLC chromatograph coupled with a MICROMASS QUATTRO micro^TM API tandem mass spectrometer. The mass spectrometer was operated in positive electrospray ionisation mode. Parameter settings were as follows: desolvation gas (N2) flow was 600 L/h; desolvation gas temperature was 400 °C; capillary voltage, 3.30 kV; ion source temperature was 120 °C. Initial data acquisition was carried out in full-scan mode to select the most abundant ions of the individual compounds.
Waters Acquity UPLC column BEH C18 (2.1 × 50 mm, 1.7 µm particle size) was applied for analysis. Acetonitrile and 0.1% aqueous formic acid mixtures were used as mobile phase at a flow rate of 0.4 mL/min with the following gradient: 0.0–2.5 min 5–98% MeCN, 2.5–3.5 min 98% MeCN. Injection volume was 2 µL.
Limit of quantitation (LOQ) was determined using S/N ratio for each compound and used for log Dmax calculations according to the following equation:(2) log Dmax = log (theoretical peak area of n-octanol phase at LOQ concentration/peak area of buffer base) Theoretical peak area at LOQ was calculated according to the calibration curve for each compound.

A. baumannii ATCC 19606 = assay type: cell-based, Acinetobacter baumannii; settings: ATCC 19606, 20 h
How it was run: as §1

A. baumannii NMI 3658/17 = assay type: cell-based, Acinetobacter baumannii; settings: NMI 3658/17, 20 h
How it was run: as §1

MIC, P. aeruginosa NMI 7197/19 [1]: >64 µg/mL | MIC, PA (P. aeruginosa PAO1): 16 to 32 µg/mL | HepG2 IC50 [3]: 619 µg/mL | log Dmax [4]: < −3.650 | MIC, AB (A. baumannii ATCC 19606): 4 µg/mL (≈ 1.99 µM) | MIC, A. baumannii NMI 3658/17 (A. baumannii NMI 3658/17): 4 µg/mL (≈ 1.99 µM)
Compound: NCCCC[C@H](NC(=O)CCN(Cc1ccc(F)cc1)C(=O)[C@H](CCCCN)NC(=O)CCN(Cc1ccc(F)cc1)C(=O)[C@H](CCCCN)NC(=O)COCCOCCNC(=O)CCN(Cc1ccc(F)cc1)C(=O)[C@H](CCCCN)NC(=O)CCN(Cc1ccc(F)cc1)C(=O)[C@H](CCCCN)NC(=O)CCN(Cc1ccc(F)cc1)C(=O)[C@@H](N)CCCCN)C(=O)N(CCC(N)=O)Cc1ccc(F)cc1 [Compound 7, H-[X]3-sPEG2-[X]3-NH2]
viability at 48 h [2]: 10%
